Experimental data reported in ChEMBL document CHEMBL1201862, “PubChem BioAssay data set” (2004).
The source made the active and inactive calls.

Columns and labels:
[1] = Luminescence Cell-Based Dose Retest to Confirm Inhibitors of Cancer Stem Cells. [Related pubchem assays (depositor defined):AID2717, AID2721]; assay type: functional; conditions: Homo sapiens
Cytochrome P450 2D6 = Cytochrome P450 2D6 (Homo sapiens, UniProt P10635);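 also: CYP2D6 member of a cytochrome P450 panel assay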
[2] = molecular target: T1, Heat shock factor protein 1 (Mus musculus, UniProt P38532); test: enhancement of HSF1-driven luciferase signal – cell-based, NIH3T3, luminescence, dose retest, confirmation (AID 435004); assay type: functional;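 also: stress induced by proteasome inhibitor MG132 added 30 min after compound; luciferase reporter driven by HSF1 response element in NIH3T3 cells; actives raise luminescence as potentiators of the MG132 stress response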
T1 sequence (P38532 whole entry): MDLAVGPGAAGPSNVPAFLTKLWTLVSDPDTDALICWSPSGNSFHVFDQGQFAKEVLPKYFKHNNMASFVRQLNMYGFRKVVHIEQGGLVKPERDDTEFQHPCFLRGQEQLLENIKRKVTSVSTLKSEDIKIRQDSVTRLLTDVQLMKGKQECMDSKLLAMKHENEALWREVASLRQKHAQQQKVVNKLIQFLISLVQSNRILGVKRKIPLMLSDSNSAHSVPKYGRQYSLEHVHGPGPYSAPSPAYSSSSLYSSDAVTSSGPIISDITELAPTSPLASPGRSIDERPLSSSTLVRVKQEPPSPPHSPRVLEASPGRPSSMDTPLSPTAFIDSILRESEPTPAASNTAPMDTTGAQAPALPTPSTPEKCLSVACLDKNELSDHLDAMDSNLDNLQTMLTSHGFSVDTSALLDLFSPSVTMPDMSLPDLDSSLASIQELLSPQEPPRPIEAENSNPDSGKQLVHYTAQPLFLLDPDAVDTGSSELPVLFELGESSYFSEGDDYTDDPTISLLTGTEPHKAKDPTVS

[3] = luciferase reporter signal suppression in cells – H4 neuroglioma cells, luminescence, dose response (AID 1990); assay type: functional, cell-based
[4] = Luminescence Cell-Based Dose Response HTS to Identify Inhibitors of 5'UTR Stem-Loop Driven Prion Protein mRNA Translation in H4 Neuroglioblastoma Cells. [Related pubchem assays: 1827 (Project Summary), 1813 (Primary HTS)]; assay type: functional
[5] = alpha-synuclein stem-loop luciferase translation blockers – H4 neuroglioma cells, luminescence, confirmation (AID 1988); assay type: functional, cell-based
[6] = molecular target: T2, Replicative DNA helicase DnaB (Mycobacterium tuberculosis, UniProt P9WMR3); test: DnaB intein splicing inhibitors, dose response, biochemical, cell-free fluorescence (AID 449749); assay type: functional
T2 sequence (P9WMR3 whole entry): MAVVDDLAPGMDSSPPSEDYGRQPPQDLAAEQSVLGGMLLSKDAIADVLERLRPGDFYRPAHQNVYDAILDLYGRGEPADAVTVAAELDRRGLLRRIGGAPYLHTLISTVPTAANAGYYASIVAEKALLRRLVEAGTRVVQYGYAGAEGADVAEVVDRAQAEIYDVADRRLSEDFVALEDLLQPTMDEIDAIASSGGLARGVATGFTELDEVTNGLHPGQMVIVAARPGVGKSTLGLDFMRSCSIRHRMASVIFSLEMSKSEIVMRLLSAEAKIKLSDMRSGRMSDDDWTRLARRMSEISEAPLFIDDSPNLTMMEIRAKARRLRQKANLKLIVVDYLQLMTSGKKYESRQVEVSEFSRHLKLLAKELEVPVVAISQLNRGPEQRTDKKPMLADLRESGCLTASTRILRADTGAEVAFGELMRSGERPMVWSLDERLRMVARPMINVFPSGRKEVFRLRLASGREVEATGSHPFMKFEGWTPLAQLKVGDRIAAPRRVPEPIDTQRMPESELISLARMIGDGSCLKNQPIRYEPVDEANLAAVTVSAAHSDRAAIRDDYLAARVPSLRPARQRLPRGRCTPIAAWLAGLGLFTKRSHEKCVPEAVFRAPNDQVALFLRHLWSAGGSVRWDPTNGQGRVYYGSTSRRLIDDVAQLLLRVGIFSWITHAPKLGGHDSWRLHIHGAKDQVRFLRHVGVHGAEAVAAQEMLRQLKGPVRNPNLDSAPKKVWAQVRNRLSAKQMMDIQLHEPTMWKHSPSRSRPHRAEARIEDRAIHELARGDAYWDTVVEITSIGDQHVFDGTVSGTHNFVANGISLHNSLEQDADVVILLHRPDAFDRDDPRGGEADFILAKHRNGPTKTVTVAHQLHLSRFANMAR

Protein RecA = molecular target: T3, Protein RecA (Mycobacterium tuberculosis, UniProt P9WHJ3); test: Fluorescence Cell-Free Homogeneous Dose Retest to Identify Inhibitors of RecA-Intein Splicing Activity. [Related pubchem assays (depositor defined):AID2097, AID2223, AID489010, AID492950]; assay type: functional
T3 sequence (P9WHJ3 whole entry): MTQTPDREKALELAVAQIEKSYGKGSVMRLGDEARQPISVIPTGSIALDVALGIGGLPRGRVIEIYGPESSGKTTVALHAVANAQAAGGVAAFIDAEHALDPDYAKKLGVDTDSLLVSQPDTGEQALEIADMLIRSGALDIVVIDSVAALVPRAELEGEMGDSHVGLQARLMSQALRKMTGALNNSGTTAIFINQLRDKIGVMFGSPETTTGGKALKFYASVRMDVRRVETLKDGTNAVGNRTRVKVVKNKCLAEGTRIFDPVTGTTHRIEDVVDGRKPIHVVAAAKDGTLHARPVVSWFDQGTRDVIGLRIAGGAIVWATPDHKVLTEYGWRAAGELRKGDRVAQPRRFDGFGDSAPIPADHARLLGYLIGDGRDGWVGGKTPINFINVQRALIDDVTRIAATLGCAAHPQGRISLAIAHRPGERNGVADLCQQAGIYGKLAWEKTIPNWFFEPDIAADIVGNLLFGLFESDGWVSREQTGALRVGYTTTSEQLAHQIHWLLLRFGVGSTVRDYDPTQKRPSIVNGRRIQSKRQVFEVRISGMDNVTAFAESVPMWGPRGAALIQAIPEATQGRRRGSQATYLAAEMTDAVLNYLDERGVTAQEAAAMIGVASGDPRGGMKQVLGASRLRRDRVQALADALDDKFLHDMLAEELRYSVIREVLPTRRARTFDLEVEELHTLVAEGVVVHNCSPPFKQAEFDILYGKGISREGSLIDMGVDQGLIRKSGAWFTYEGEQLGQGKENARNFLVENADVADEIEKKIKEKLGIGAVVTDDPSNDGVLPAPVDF

Cytochrome P450 2C19 = Cytochrome P450 2C19 (Homo sapiens, UniProt P33261); test: Cytochrome panel assay with activity outcomes. Panel member name: p450-cyp2c19 Compounds with AC50 equal or less than 10 uM are considered active; assay type: functional
Cytochrome P450 1A2 = molecular target: T4, Cytochrome P450 1A2 (Homo sapiens, UniProt P05177);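 also: PubChem cytochrome P450 panel assay, CYP1A2 panel member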
T4 sequence (P05177 whole entry): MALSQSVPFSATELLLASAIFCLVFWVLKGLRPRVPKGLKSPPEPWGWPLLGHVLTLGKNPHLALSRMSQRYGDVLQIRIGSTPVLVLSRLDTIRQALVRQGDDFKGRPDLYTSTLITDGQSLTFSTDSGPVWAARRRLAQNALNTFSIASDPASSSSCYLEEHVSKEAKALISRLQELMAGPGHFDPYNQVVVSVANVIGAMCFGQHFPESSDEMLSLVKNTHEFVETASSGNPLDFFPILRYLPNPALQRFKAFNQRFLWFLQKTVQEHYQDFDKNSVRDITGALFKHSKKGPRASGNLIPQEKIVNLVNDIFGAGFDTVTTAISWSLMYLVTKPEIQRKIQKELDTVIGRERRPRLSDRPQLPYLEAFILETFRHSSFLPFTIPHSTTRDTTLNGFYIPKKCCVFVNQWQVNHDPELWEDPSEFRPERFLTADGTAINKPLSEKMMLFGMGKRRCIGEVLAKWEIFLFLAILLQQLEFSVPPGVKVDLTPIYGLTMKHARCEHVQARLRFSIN

Cytochrome P450 3A4 = Cytochrome P450 3A4 (Homo sapiens, UniProt P08684);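 also: CYP3A4 tested as one member of a cytochrome P450 panel screen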
INS1 = test: INS-1E survival protection against cytokine death – cell-based, luminescence, retest, dose response (AID 449756); assay type: functional; conditions: Rattus norvegicus, INS1;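 also: cell death triggered by IL-1 beta plus TNF-alpha plus IFN-gamma mixture; protective hits raise ATP signal compared with cytokine alone wells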
[7] = Trypanosoma cruzi growth suppression in host cells – NIH3T3 host cells, beta-gal luminescence, confirmation (AID 2044); assay type: functional, cell-based;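 also: intracellular parasites grown in NIH/3T3 mouse fibroblasts as host cells; luminescent beta-galactosidase reporter signal from transgenic T. cruzi replicating inside host cells; inhibitors lower the luminescence signal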
[8] = NIH3T3 cell viability loss – ATP luminescence, mouse fibroblasts, counter-screen, dose response (AID 2010); assay type: functional, cell-based;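 also: cells exposed to compound for about 90 hours before reading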

Cytochrome P450 3A4, sequence (P08684 whole entry): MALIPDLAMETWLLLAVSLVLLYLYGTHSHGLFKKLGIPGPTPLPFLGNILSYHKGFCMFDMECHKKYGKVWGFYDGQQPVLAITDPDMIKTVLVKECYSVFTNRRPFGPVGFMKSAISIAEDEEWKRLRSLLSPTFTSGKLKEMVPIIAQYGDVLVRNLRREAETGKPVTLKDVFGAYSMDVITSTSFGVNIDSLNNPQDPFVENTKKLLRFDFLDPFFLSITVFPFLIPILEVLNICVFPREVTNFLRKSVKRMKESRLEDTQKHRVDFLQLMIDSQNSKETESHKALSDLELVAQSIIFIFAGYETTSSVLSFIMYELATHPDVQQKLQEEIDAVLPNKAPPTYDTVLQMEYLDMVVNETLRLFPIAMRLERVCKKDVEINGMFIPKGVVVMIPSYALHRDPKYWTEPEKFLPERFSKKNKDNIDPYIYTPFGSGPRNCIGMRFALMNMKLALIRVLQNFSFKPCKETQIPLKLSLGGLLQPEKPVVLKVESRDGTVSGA
Cytochrome P450 2C19, sequence (P33261 whole entry): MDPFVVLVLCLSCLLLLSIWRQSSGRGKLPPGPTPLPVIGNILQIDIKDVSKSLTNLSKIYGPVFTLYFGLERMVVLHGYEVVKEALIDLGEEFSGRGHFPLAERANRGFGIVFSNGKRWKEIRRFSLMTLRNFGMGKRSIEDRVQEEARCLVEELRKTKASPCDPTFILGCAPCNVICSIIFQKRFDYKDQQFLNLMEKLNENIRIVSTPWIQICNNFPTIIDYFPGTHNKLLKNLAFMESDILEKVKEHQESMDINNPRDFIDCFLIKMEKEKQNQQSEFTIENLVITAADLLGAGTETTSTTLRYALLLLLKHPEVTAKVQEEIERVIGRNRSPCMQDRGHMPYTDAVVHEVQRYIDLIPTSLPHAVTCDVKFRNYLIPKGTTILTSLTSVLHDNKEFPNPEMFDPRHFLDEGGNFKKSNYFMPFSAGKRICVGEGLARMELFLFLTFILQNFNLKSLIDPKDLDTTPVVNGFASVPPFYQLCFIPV
Cytochrome P450 2D6, sequence (P10635 whole entry): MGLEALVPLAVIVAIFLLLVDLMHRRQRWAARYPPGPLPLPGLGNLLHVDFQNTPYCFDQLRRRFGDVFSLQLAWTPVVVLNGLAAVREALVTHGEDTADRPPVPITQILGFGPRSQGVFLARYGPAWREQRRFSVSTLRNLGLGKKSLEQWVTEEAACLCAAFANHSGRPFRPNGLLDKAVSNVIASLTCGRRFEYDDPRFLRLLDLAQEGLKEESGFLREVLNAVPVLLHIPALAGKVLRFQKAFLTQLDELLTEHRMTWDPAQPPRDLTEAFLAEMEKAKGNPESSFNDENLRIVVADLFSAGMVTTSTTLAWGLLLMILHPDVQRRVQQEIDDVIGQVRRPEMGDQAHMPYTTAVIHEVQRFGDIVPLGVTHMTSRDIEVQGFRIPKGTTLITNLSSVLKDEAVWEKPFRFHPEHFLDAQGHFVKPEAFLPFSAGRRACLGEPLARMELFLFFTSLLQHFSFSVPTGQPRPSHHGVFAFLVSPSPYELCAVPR

CC(=O)N1c2ccc(Cl)cc2C2C=CCC2C1c1cccc2ccccc12 (configuration not stated)
AC50 [1]: 2.27 µM (active)

COc1cc(C(=O)OC2CC3CCC2(C)C3(C)C)ccc1OC(C)=O (configuration not stated)
AC50 [1]: 3.75 µM (active)

COc1ncc2nc(CCc3ccccc3)c(=O)n(Cc3cccs3)c2n1
AC50 (Cytochrome P450 2D6): 12.6 µM (inconclusive)

Cc1ccc(F)cc1NC(=O)N1CCCN(c2ccc(C(F)(F)F)cn2)CC1
EC50 [2]: > 260 µM (inactive)

CCOC(=O)C1CCN(Cc2cnc(Oc3ccc(OC)cc3)s2)CC1
AC50 (Cytochrome P450 2D6): 22.4 µM (inconclusive)

C=CCCC(=O)Nc1nc(C)c(-c2csc(Nc3cc(OC)ccc3OC)n2)s1
EC50 [3]: > 120 µM (not active) | EC50 [4]: 12.1 µM (active) | EC50 [5]: 5.52 µM (active) | AC50 [1]: 0.71 µM (active)

O=C(CSc1ncnc2c1nnn2-c1ccc(F)cc1)NCC1CCCO1 (configuration not stated)
EC50 [2]: 36.2 µM (active) | AC50 [6]: 3.14 µM (active) | EC50 (Protein RecA): 3.67 µM (active)

COc1c(O)ccc2c1CN1CCc3cc4c(cc3[C@@H]1C2)OCO4
AC50 (Cytochrome P450 2C19; read-out: AC50): 3.98 µM (inconclusive) | AC50 (Cytochrome P450 1A2): 0.501 µM (inconclusive) | AC50 (Cytochrome P450 3A4): 5.01 µM (inconclusive)

CCN1CCN(Cc2ccc(OCc3ccccc3)cc2)CC1
AC50 [1]: 1.89 µM (active)

O=C(NC(=S)Nc1ccccc1C(F)(F)F)c1ccccc1F
EC50 [2]: 143 µM (active)

CC(NC(=O)C1CCC(C(=O)NC(C)c2ccccc2)CC1)c1ccccc1 (configuration not stated)
AC50 [1]: > 195 µM (inactive) | AC50 (INS1): > 260 µM (inactive)

O=C(O)CCc1ccc(-c2ccc(Br)cc2)n1Cc1ccco1
EC50 [2]: > 260 µM (inactive)

CCOc1ccc(OCCC(=O)OCC(=O)N2CCN(S(=O)(=O)c3ccc(Cl)cc3)CC2)cc1
EC50 [2]: 18.5 µM (active)

CC(C)C(=O)NCCc1nc2ccccc2n1CCCOc1ccc(Cl)cc1
AC50 (Cytochrome P450 1A2): 28.2 µM (inconclusive)

O=C(NNc1c(F)c(F)cc(F)c1F)c1ccc(Cl)nc1
EC50 [2]: > 260 µM (inactive)

CCOc1ncccc1C(=O)N(C)CC1COc2ccccc2O1 (configuration not stated)
EC50 [2]: > 260 µM (inactive)

CCOc1ccc(NC(=O)Nc2ccc(Cc3ccncc3)cc2)cc1
AC50 [1]: 8.67 µM (active)

Fc1ccc(Nc2ccnc(-c3ccccc3C(F)(F)F)n2)cc1
AC50 (Cytochrome P450 2D6): 39.8 µM (inconclusive)

CC[C@@H]1CC(=O)N(SC[C@H](N)C(=O)O)C1=O
AC50 (Cytochrome P450 2C19): inconclusive

CN1CCN(C2CC(=O)N(Cc3ccc(N4CCCC4=O)cc3)C2=O)CC1 (configuration not stated)
AC50 (Cytochrome P450 2C19): inconclusive

COc1ccc2c3c(ccc2c1)N[C@H](C(=O)O)CC3
AC50 (Cytochrome P450 1A2): 0.501 µM (inconclusive)

Cc1ccc2nc(N(CCCN(C)C)C(=O)c3cc(-c4cccs4)nc4ccccc34)sc2c1
AC50 [1]: 4.45 µM (active)

Cc1ccc2sc(N(CCCN(C)C)C(=O)c3ccc(S(=O)(=O)N4CCCCCC4)cc3)nc2c1C
EC50 [7]: 0.445 µM (active) | EC50 [8]: 9.3 µM (active) | AC50 [1]: 3.12 µM (active)

CSc1nc2n(n1)C(c1cc(Br)ccc1F)C(C(=O)N(C)C)=C(C)N2 (configuration not stated)
AC50 (Cytochrome P450 1A2): 25.1 µM (inconclusive) | AC50 (Cytochrome P450 3A4): 14.1 µM (inconclusive)

COc1ccc(N2CCN(c3ncnc4c3cnn4-c3ccc(C)cc3C)CC2)cc1
EC50 [2]: > 260 µM (inactive)

Cc1cc(C(=O)CN2C(=O)NC3(CCCCC3)C2=O)c(C)n1Cc1ccco1
EC50 [2]: 44 µM (active)

COc1ccc(N=Nc2ccc(CO)cc2)cc1
EC50 [2]: > 260 µM (inactive)

CC1CCC(C(=O)NC(C(=O)N2CCC(N3CCCCC3)CC2)C(C)C)CC1 (configuration not stated)
AC50 (Cytochrome P450 2C19; read-out: AC50): 8.91 µM (inconclusive) | AC50 (Cytochrome P450 3A4): 14.1 µM (inconclusive)

CC(C)(C)c1ccc(COC(=O)CNC(=O)CNC(=O)Cc2ccccc2)cc1
AC50 (Cytochrome P450 2C19; read-out: AC50): 31.6 µM (inconclusive)

O=[N+]([O-])c1ccc(C2CCCC/C2=N\OCc2cccc(F)c2)c([N+](=O)[O-])c1 (configuration not stated)
EC50 [7]: 0.518 µM (active) | EC50 [8]: > 60 µM (not active) | AC50 (Cytochrome P450 1A2): 15.8 µM (inconclusive)

CCOC(=O)C(/C=N/c1ccc(C#N)cc1)=C(/O)OCC
EC50 [2]: > 260 µM (inactive)

COc1ccc(NS(=O)(=O)c2cccc(C(=O)N/N=C(\C)c3ccc(-n4ccnc4)cc3)c2)cc1
AC50 [1]: > 195 µM (inactive)

COc1ccccc1-c1c[nH]nc1-c1ccc(OCc2ccccc2F)cc1O
AC50 [1]: 4.88 µM (active)
